Data set [1] addresses T1, Menin/Histone-lysine N-methyltransferase MLL (Homo sapiens, UniProt O00255). The data set can be described thus: Inhibition of human menin-MLL (unknown origin) protein-protein interaction by fluorescence polarization assay.
Data set [2] deals with T1, Menin/Histone-lysine N-methyltransferase MLL. The experiment in a line: Inhibition of human menin-MLL (unknown origin) protein-protein interaction incubated for 0.5 to 4 hrs by TR-FRET assay.
Data set [3] relates to MV4-11. The experiment in a line: Antiproliferative activity against human MV4-11 cells incubated for 7 days by PrestoBlue Cell Viability assay. Format: functional, cell-based. Conditions: MV4-11, 168 h.
Data set [4] addresses Voltage-gated inwardly rectifying potassium channel KCNH2 (Homo sapiens, UniProt Q12809). The data set can be described thus: Inhibition of human ERG expressed in CHO cells by Q-patch clamp assay. In kind it is toxicity, cell-based.
The target in data set [5] is T2, Menin (Homo sapiens, UniProt O00255).
T2 sequence (O00255 whole entry): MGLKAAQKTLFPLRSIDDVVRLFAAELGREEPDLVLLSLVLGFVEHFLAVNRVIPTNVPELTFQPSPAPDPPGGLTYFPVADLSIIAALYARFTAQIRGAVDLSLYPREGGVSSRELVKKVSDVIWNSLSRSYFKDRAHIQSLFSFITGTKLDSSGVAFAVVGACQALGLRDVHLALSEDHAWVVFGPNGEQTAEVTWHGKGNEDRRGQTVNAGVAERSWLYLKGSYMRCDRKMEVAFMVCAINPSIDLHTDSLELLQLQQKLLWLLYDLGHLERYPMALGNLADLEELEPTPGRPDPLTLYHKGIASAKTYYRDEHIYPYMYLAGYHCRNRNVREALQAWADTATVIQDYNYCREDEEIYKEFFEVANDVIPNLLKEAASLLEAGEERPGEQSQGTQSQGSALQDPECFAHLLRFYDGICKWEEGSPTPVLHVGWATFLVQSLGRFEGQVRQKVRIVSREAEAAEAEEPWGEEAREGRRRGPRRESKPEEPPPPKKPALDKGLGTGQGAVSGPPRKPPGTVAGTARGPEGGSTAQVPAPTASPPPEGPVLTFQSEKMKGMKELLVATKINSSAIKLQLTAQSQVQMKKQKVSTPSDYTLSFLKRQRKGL
The experiment in a line: Binding affinity to menin (unknown origin) incubated for 1 hr by fluorescence polarization assay.

Data set [6] relates to HL-60. The experiment in a line: Antiproliferative activity against human HL-60 cells incubated for 72 hrs by MTT assay. Conditions: HL-60, 72 h. Format: functional, cell-based.
For data set [7], the system named is SU-DHL-6. The experiment in a line: Antiproliferative activity against human SU-DHL-6 cells incubated for 72 hrs by MTT assay. In kind it is functional, cell-based. Conditions: SU-DHL-6, 72 h.
In data set [8] the test system is Pfeiffer. The data set can be described thus: Antiproliferative activity against human Pfeiffer cells incubated for 72 hrs by MTT assay. In kind it is functional, cell-based.
Data set [9] relates to Raji. The experiment in a line: Antiproliferative activity against human Raji cells incubated for 72 hrs by MTT assay. In kind it is functional, cell-based.
Data set [10] deals with Ramos. The experiment in a line: Antiproliferative activity against human Ramos cells incubated for 72 hrs by MTT assay. In kind it is functional, cell-based.
The subject of data set [11] is HCT-116. The data set can be described thus: Antiproliferative activity against human HCT-116 cells incubated for 72 hrs by MTT assay. In kind it is functional, cell-based. The settings on record: HCT-116, 72 h.
The subject of data set [12] is MCF7. The experiment in a line: Antiproliferative activity against human MCF7 cells incubated for 72 hrs by MTT assay. In kind it is functional, cell-based. The settings on record: MCF7, 72 h.
Data set [13] can be described thus: Antiproliferative activity against human NCM460 cells incubated for 72 hrs by MTT assay. In kind it is toxicity, cell-based.
In data set [14] the test system is MV4-11. The data set can be described thus: Induction of apoptosis in human MV4-11 cells assessed as viable cells at 1 uM incubated for 24 hrs by FITC Annexin-V/PI staining based flow cytometry analysis (reference value: 94.27%). In kind it is functional. Conditions: read-out: Activity.
The subject of data set [15] is MV4-11. The experiment in a line: Induction of apoptosis in human MV4-11 cells assessed as early apoptotic cells at 1 uM incubated for 24 hrs by FITC Annexin-V/PI staining based flow cytometry analysis (reference value: 2.68%). Format: functional.
For data set [16], the system named is MV4-11. The experiment in a line: Induction of apoptosis in human MV4-11 cells assessed as late apoptotic cells at 1 uM incubated for 24 hrs by FITC Annexin-V/PI staining based flow cytometry analysis (reference value: 3%). In kind it is functional.
Data set [17] relates to MV4-11. The data set can be described thus: Induction of apoptosis in human MV4-11 cells assessed as necrotic cells at 1 uM incubated for 24 hrs by FITC Annexin-V/PI staining based flow cytometry analysis (reference value: 0.04%). Format: functional.
The subject of data set [18] is MV4-11. The experiment in a line: Induction of apoptosis in human MV4-11 cells assessed as viable cells at 10 uM incubated for 24 hrs by FITC Annexin-V/PI staining based flow cytometry analysis (reference value: 94.27%). The settings on record: read-out: Activity. Format: functional.
Data set [19] deals with MV4-11. The experiment in a line: Induction of apoptosis in human MV4-11 cells assessed as early apoptotic cells at 10 uM incubated for 24 hrs by FITC Annexin-V/PI staining based flow cytometry analysis (reference value: 2.68%). Format: functional.
The subject of data set [20] is MV4-11. The data set can be described thus: Induction of apoptosis in human MV4-11 cells assessed as late apoptotic cells at 10 uM incubated for 24 hrs by FITC Annexin-V/PI staining based flow cytometry analysis (reference value: 3%). Format: functional.
For data set [21], the system named is MV4-11. The experiment in a line: Induction of apoptosis in human MV4-11 cells assessed as necrotic cells at 10 uM incubated for 24 hrs by FITC Annexin-V/PI staining based flow cytometry analysis (reference value: 0.04%). Format: functional.
The test system of data set [22] is MV4-11. The experiment in a line: Induction of apoptosis in human MV4-11 cells assessed as viable cells at 0.1 uM incubated for 24 hrs by FITC Annexin-V/PI staining based flow cytometry analysis (reference value: 94.27%). Format: functional. The settings on record: read-out: Activity.
Data set [23] concerns MV4-11. The data set can be described thus: Induction of apoptosis in human MV4-11 cells assessed as early apoptotic cells at 0.1 uM incubated for 24 hrs by FITC Annexin-V/PI staining based flow cytometry analysis (reference value: 2.68%). In kind it is functional.
Data set [24] deals with MV4-11. The data set can be described thus: Induction of apoptosis in human MV4-11 cells assessed as late apoptotic cells at 0.1 uM incubated for 24 hrs by FITC Annexin-V/PI staining based flow cytometry analysis (reference value: 3%). In kind it is functional.
Data set [25] has as its system MV4-11. The experiment in a line: Induction of apoptosis in human MV4-11 cells assessed as necrotic cells at 0.1 uM incubated for 24 hrs by FITC Annexin-V/PI staining based flow cytometry analysis (reference value: 0.04%). Format: functional.
Data set [26] has as its system MV4-11. The data set can be described thus: Induction of cell cycle arrest in human MV4-11 cells assessed as accumulation of cells at G0/G1 phase incubated for 24 hrs by PI/RNase staining based flow cytometry analysis. Format: functional. The settings on record: dose 0.1-10 µM.
For data set [27], the system named is MV4-11. The data set can be described thus: Effect on cell differentiation in human MV4-11 cells assessed as decrease in HOXA9 expression level incubated for 48 hrs by qPCR analysis. Format: functional, cell-based.
The subject of data set [28] is MV4-11. The data set can be described thus: Effect on cell differentiation in human MV4-11 cells assessed as decrease in HOXA9 expression level at 0.5 uM by qPCR analysis. Format: functional, cell-based. The settings on record: time 24-48 hrs, TDE = time-dependent effect.
Data set [29] has as its system MV4-11. The data set can be described thus: Effect on cell differentiation in human MV4-11 cells assessed as decrease in MEIS1 expression level incubated for 48 hrs by qPCR analysis. Format: functional, cell-based.
For data set [30], the system named is MV4-11. The experiment in a line: Effect on cell differentiation in human MV4-11 cells assessed as decrease in MEIS1 expression level at 0.5 uM by qPCR analysis. In kind it is functional, cell-based. The settings on record: time 24-48 hrs, TDE = time-dependent effect.
Data set [31] relates to MV4-11. The experiment in a line: Effect on cell differentiation in human MV4-11 cells assessed as assessed as increase in CD11b protein expression at M2-1 at 1 uM incubated for 7 days by flow cytometry analysis (reference value: 86.12%). Conditions: time 7 day. In kind it is functional.
Data set [32] relates to MV4-11. The experiment in a line: Effect on cell differentiation in human MV4-11 cells assessed as assessed as increase in CD11b protein expression at M2-2 at 1 uM incubated for 7 days by flow cytometry analysis (reference value: 13.86%). Format: functional. The settings on record: time 7 day.
Data set [33] relates to MV4-11. The experiment in a line: Effect on cell differentiation in human MV4-11 cells assessed as assessed as increase in CD11b protein expression at M2-1 at 10 uM incubated for 7 days by flow cytometry analysis (reference value: 86.12%). Format: functional. Conditions: time 7 day.
The test system of data set [34] is MV4-11. The data set can be described thus: Effect on cell differentiation in human MV4-11 cells assessed as assessed as increase in CD11b protein expression at M2-2 at 10 uM incubated for 7 days by flow cytometry analysis (reference value: 13.86%). In kind it is functional. Conditions: time 7 day.
Data set [35] concerns MV4-11. The data set can be described thus: Effect on cell differentiation in human MV4-11 cells assessed as assessed as increase in CD11b protein expression at M2-1 at 0.1 uM incubated for 7 days by flow cytometry analysis (reference value: 86.12%). Format: functional. The settings on record: time 7 day.
Data set [36] deals with MV4-11. The experiment in a line: Effect on cell differentiation in human MV4-11 cells assessed as assessed as increase in CD11b protein expression at M2-2 at 0.1 uM incubated for 7 days by flow cytometry analysis (reference value: 13.86%). Conditions: time 7 day. Format: functional.
Data set [37] concerns MV4-11. The experiment in a line: cells. Conditions: Homo sapiens, MV4-11, 72 h.
Description: Antiproliferative activity against human MV4-11 cells incubated for 72 hrs by MTT assay

T1 sequence (Q03164 1-2718 partner limits assumed, one chain of several): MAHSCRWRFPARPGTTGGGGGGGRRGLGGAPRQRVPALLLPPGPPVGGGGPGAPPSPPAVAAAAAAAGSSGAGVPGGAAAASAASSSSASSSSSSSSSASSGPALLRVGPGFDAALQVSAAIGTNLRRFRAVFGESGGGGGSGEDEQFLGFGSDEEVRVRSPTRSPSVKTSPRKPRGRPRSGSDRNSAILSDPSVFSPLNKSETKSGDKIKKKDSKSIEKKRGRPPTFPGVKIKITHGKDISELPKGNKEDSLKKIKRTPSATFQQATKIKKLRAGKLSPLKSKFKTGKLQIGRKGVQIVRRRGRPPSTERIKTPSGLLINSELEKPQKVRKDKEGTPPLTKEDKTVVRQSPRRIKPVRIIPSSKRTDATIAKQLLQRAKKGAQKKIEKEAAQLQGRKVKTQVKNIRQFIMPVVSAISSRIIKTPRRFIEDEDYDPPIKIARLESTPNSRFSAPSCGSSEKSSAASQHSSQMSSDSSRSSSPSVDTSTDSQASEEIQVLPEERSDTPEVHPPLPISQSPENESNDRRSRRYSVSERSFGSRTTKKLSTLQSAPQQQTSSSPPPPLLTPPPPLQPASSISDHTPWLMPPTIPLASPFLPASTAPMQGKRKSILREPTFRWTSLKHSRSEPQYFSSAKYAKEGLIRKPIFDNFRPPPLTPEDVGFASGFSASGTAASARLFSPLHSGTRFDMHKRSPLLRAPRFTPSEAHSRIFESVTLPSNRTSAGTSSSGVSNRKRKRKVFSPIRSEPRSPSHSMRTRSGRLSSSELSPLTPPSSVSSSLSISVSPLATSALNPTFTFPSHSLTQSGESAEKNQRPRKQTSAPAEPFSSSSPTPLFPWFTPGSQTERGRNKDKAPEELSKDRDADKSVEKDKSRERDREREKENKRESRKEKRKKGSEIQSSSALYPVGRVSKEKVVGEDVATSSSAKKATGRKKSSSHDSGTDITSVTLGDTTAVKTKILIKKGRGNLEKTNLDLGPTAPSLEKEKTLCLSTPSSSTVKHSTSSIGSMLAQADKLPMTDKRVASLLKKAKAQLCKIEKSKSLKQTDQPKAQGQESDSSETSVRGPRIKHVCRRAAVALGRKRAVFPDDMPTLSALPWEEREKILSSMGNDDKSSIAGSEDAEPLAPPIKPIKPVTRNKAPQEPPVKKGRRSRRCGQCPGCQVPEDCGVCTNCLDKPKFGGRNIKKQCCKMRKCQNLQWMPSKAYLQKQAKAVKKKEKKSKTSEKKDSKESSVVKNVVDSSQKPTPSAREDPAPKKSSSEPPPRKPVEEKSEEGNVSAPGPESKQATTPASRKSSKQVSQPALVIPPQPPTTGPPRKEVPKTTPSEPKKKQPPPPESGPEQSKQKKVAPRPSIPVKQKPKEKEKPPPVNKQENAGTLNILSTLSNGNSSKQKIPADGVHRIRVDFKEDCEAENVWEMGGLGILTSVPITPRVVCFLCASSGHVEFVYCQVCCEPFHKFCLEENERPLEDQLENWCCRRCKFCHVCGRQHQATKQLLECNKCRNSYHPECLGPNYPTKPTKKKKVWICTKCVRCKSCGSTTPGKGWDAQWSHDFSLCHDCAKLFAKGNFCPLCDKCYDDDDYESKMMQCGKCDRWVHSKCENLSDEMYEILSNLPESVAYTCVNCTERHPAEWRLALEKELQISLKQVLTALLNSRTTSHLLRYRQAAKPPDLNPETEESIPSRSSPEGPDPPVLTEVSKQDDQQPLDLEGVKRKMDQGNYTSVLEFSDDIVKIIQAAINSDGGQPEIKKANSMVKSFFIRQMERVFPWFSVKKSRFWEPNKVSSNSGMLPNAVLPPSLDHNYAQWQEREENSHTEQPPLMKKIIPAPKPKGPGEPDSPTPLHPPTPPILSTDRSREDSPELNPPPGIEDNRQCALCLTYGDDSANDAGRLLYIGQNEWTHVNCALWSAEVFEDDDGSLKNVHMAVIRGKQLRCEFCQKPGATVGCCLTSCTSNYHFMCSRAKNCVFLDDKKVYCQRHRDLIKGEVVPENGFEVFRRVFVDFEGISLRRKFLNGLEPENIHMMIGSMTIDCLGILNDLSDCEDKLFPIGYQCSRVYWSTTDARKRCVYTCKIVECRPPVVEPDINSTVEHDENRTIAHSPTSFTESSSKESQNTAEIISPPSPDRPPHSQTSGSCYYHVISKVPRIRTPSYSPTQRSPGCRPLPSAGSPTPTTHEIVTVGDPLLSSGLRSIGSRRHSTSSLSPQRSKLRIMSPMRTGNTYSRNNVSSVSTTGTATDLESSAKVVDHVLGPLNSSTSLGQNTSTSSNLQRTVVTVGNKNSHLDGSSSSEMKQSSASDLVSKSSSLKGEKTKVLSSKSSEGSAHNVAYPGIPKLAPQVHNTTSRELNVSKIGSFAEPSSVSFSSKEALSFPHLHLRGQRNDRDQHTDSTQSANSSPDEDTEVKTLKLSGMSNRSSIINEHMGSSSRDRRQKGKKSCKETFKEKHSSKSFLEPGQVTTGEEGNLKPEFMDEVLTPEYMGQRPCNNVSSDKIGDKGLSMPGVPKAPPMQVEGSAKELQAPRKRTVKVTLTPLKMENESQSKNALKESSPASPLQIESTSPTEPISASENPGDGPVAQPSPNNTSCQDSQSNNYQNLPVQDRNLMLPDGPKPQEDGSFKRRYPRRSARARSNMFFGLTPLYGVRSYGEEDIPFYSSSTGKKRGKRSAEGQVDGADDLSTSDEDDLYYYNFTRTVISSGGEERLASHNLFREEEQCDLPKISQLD
T1 sequence (Q03164 2719-3969 partner limits assumed, one chain of several): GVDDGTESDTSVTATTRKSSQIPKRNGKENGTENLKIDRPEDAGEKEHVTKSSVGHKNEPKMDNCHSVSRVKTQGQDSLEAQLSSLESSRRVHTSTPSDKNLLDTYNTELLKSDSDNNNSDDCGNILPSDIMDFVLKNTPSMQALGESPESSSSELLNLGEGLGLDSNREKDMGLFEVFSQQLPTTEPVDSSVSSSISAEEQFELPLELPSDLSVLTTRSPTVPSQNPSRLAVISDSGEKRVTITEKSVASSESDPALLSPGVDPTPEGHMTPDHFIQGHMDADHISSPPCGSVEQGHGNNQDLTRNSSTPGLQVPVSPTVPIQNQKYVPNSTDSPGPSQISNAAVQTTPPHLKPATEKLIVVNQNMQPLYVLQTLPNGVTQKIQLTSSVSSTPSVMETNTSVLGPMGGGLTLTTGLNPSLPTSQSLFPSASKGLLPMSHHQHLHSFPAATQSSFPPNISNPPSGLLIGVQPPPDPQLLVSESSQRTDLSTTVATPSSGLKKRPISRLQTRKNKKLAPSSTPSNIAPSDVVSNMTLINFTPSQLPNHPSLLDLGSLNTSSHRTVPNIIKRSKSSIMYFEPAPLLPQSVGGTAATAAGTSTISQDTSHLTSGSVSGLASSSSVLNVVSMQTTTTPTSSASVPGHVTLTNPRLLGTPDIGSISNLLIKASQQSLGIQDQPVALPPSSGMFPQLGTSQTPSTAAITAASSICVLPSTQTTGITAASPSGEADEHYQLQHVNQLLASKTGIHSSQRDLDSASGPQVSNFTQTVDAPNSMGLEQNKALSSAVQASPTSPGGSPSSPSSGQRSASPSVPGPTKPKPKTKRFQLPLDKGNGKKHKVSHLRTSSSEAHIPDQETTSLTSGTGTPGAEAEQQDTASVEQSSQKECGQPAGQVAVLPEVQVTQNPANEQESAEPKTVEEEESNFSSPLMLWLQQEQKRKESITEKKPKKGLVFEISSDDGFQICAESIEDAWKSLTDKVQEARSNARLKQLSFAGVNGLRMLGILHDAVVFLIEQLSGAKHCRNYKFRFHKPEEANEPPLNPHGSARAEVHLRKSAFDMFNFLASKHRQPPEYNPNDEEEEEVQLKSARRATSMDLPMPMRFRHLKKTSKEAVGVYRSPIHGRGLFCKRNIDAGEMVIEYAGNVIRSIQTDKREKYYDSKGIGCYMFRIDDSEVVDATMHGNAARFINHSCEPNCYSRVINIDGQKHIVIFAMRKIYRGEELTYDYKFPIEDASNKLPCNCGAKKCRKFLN
Voltage-gated inwardly rectifying potassium channel KCNH2, sequence (Q12809 whole entry): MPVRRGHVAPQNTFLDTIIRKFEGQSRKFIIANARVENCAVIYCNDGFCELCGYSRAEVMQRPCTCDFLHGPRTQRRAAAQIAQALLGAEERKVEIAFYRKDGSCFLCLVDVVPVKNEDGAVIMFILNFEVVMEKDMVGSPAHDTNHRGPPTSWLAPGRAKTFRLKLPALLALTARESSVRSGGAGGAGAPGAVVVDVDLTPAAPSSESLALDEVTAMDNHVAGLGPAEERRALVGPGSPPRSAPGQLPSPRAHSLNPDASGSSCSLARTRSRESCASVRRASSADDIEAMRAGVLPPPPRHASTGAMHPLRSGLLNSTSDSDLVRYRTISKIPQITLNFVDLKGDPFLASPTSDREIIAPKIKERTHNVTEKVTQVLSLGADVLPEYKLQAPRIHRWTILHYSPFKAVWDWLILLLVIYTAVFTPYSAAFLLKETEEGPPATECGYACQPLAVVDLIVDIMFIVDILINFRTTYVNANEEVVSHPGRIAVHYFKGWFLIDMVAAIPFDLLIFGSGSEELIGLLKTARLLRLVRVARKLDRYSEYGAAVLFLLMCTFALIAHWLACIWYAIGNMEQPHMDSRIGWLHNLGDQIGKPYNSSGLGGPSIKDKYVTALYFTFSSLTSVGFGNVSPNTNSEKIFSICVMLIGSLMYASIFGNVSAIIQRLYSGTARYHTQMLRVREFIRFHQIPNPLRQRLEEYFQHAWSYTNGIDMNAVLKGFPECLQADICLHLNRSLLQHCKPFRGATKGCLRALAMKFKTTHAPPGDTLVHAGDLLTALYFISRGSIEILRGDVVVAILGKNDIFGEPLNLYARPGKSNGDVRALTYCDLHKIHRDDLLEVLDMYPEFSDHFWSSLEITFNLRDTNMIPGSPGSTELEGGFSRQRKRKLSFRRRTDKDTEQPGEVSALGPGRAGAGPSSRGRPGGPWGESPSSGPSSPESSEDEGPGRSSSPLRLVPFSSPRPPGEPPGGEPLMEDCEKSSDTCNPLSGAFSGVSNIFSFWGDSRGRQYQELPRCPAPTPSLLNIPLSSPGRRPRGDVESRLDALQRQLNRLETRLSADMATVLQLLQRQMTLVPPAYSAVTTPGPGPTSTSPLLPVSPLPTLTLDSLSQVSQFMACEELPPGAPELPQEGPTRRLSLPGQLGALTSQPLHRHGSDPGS

On to `CNc1nc(NC2CCN(Cc3ccc4c(cc(C#N)n4CC45CC(NC=O)(C4)C5)c3C)CC2)c2cc(CC(F)(F)F)sc2n1`, for which, in [1], inhibition was half-maximal at 0.00051 µM (IC50).
The compound `Cc1c(CN2CCC3(CC2)CN(c2ncnc4sc(CC(F)(F)F)cc24)C3)ccc2c1cc(C#N)n2CC(N)=O` yielded an IC50 in [2] of 0.008 µM.
Regarding `CC(C)N(C)C(=O)c1cc(F)ccc1-n1cc(C2CCN(C(=O)[C@H]3NC4CCC3CC4)CC2)c2ccncc21`, the values for the half-inhibitory concentration (IC50) in data set [3] and in [4] were 0.073 µM and greater than 100 µM, respectively.
Turning to `N#Cc1ccc(N2CC(CN3CCC(n4cc(-c5ccc(F)cc5)c5c(N)ncnc54)CC3)C2)cc1`, the IC50 in data set [5] was 0.38 µM; in [6], greater than 10 µM; in [7], 6.87 µM; in data set [8] it was greater than 10 µM; in [9] it was greater than 10 µM; in data set [10], greater than 10 µM. Besides, the IC50 in data set [11] was greater than 10 µM; in data set [12], greater than 10 µM; in [37], 1.07 µM. Besides, the IC50 at 72 h in data set [13] was greater than 10 µM. Further, in data set [14], the viability at 1 µM came to 91%. Moreover, the Activity in [15] is listed as 4.53%; in data set [16], 4.23%; in [17] it was 0.14%; in data set [19], 8.52%; in data set [20] it was 34.56%; in data set [21], 1.09%. Moreover, the Activity in data set [23] is 3.34%; in data set [24] it was 2.75%; in data set [25] it was 0.05%; in data set [26], “Dose-Dependent Effect”; in data set [27], “Dose-Dependent Effect”; in data set [28] it was “Tde”. The Activity entry in [29] was “Dose-Dependent Effect”; in data set [30] it was “Tde”; in [31], 68.53%; in [32] it was 31.47%; in data set [33] it was 30.31%; in data set [34], 69.67%. Moreover, the Activity in data set [35] was 85.59%; in data set [36] it was 14.39%. Further, in [18], the viability at 10 µM was determined as 55.8%. Besides, the viability at 0.1 µM in data set [22] was 93.9%.
